Experimental findings from US20260138961A1, “MODULATORS OF MITOCHONDRIAL DNA REPLICATION” (Pretzel Therapeutics, Inc., priority 2022, published 2026) are described below.

The target in the test is T1, POLγA:A467T (Homo sapiens, UniProt P54098, A467T).
T1 sequence (P54098 1-1239 A467T): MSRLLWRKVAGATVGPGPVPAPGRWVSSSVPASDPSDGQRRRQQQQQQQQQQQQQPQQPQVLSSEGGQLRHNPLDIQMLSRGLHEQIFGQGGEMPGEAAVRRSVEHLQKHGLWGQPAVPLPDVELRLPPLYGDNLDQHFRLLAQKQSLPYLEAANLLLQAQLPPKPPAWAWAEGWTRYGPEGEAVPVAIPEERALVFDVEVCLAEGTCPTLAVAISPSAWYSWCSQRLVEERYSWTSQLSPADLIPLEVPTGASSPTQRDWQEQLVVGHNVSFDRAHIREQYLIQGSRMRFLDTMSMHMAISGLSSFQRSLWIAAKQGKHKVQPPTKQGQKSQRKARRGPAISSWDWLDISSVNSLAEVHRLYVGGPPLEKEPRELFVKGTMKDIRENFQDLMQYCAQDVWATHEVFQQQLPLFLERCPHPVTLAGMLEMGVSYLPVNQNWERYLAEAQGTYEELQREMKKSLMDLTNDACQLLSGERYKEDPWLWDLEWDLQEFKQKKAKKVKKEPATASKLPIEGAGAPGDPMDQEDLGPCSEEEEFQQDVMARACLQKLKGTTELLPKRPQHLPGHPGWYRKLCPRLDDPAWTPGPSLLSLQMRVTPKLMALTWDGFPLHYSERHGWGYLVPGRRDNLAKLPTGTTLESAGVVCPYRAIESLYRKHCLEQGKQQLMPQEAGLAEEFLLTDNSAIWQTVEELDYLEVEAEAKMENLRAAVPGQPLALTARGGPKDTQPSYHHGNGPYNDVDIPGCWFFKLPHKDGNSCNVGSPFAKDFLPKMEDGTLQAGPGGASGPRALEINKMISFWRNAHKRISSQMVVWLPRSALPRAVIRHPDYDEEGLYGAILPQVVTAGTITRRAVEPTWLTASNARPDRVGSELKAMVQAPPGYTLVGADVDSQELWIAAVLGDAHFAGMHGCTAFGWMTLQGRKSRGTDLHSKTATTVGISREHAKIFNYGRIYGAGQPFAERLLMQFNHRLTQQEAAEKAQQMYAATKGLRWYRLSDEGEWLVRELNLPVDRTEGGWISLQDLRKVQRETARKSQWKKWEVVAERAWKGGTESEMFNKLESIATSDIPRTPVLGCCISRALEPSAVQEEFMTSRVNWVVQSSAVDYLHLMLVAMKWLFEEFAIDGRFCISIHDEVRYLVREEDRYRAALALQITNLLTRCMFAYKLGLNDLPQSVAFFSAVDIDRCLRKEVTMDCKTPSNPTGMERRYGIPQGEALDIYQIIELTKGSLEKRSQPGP
T1 sequence (Q9UHN1 1-485 partner): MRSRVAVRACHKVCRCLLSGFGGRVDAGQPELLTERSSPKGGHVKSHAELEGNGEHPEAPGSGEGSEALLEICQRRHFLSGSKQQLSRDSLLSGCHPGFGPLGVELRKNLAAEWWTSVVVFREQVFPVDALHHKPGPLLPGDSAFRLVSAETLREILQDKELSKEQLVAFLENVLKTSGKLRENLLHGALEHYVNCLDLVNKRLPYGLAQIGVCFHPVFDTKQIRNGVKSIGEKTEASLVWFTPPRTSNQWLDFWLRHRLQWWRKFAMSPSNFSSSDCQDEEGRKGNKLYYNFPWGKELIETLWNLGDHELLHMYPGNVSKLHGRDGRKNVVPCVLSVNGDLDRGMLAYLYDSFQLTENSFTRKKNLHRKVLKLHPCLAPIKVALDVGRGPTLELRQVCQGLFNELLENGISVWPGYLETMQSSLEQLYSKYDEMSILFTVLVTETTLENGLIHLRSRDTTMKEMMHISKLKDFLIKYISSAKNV
The test is described as follows: DNA polymerization assay, POLγA:A467T mutant. In kind it is biochemical. Conditions: stimulation of polymerase activity, primed M13mp18 ssDNA, 37° C. 2 hours; read-out: A467T AC50.
Take `Cc1cc(S(=O)(=O)Nc2cccc(C(=O)N(C)C(C)CO)c2)c(C)cc1Cl` (single isomer, unassigned) [Example 15, 3-((4-chloro-2,5-dimethylphenyl)sulfonamido)-N-(1-hydroxypropan-2-yl)-N-methylbenzamide]: the AC50 (commonly the concentration giving half of the maximal activity seen) is greater than 100 µM.

Consider `Cc1csc(-c2cccc(NS(=O)(=O)c3cc(C)c(Cl)cc3C)c2)n1` [Example 20, 4-chloro-2,5-dimethyl-N-(3-(4-methylthiazol-2-yl)phenyl)benzenesulfonamide], for which the AC50 is 4 µM.

Regarding `Cc1cnc(-c2cccc(NS(=O)(=O)c3cc(C)c(Cl)cc3C)c2)s1` [Example 21, 4-chloro-2,5-dimethyl-N-(3-(5-methylthiazol-2-yl)phenyl)benzenesulfonamide], the AC50 is 3 µM.

On to `Cc1cc(S(=O)(=O)N(C)c2cccc(-c3nccs3)c2)c(C)cc1Cl` [Example 22, 4-chloro-N,2,5-trimethyl-N-(3-(thiazol-2-yl)phenyl)benzenesulfonamide], for which the AC50 was greater than 100 µM.

For `Cc1ccccc1S(=O)(=O)Nc1cccc(C(=O)N2CCOC[C@@H]2C)c1` [Example 23, (S)-2-methyl-N-(3-(3-methylmorpholine-4-carbonyl)phenyl)benzenesulfonamide], the AC50 is greater than 100 µM.

As for `Cc1ccc(C)c(S(=O)(=O)Nc2cccc(C(=O)N3CCSCC3)c2)c1` [Example 24, 2,5-dimethyl-N-(3-(thiomorpholine-4-carbonyl)phenyl)benzenesulfonamide], the AC50 was greater than 100 µM.

As to `Cc1ccc(C)c(S(=O)(=O)Nc2cccc(C(=O)N(C)C)c2)c1` [Example 25, 3-((2,5-dimethylphenyl)sulfonamido)-N,N-dimethylbenzamide], the AC50 is greater than 100 µM.

For the compound `Cc1ccc(C)c(S(=O)(=O)Nc2cccc(C(=O)N(C)Cc3ccccc3)c2)c1` [Example 26, N-benzyl-3-((2,5-dimethylphenyl)sulfonamido)-N-methylbenzamide], the AC50 was greater than 100 µM.

Take `Cc1ccc(C)c(S(=O)(=O)Nc2cccc(C(N)=O)c2)c1` [Example 27, 3-((2,5-dimethylphenyl)sulfonamido)benzamide]: the AC50 was greater than 100 µM.

With `Cc1ccc(C)c(S(=O)(=O)Nc2cccc(C(=O)NCc3ccccc3)c2)c1` [Example 28, N-benzyl-3-((2,5-dimethylphenyl)sulfonamido)benzamide], the AC50 is greater than 100 µM.

For the compound `Cc1ccc(C)c(S(=O)(=O)Nc2cccc(C(=O)N3CCOCC3)c2)c1` [Example 29, 2,5-dimethyl-N-(3-(morpholine-4-carbonyl)phenyl)benzenesulfonamide], the AC50 was greater than 100 µM.

Regarding `CC(=O)N1CCN(C(=O)c2cccc(NS(=O)(=O)c3cc(C)ccc3C)c2)CC1` [Example 30, N-(3-(4-acetylpiperazine-1-carbonyl)phenyl)-2,5-dimethylbenzenesulfonamide], the AC50 was greater than 100 µM.

With `Cc1ccc(C)c(S(=O)(=O)Nc2cccc(C(=O)N3CCN(C)CC3)c2)c1` [Example 31, 2,5-dimethyl-N-(3-(4-methylpiperazine-1-carbonyl)phenyl)benzenesulfonamide], the AC50 is greater than 100 µM.

On to `Cc1ccc(C)c(S(=O)(=O)Nc2cccc(C(=O)N3CCCCCC3)c2)c1` [Example 32, N-(3-(azepane-1-carbonyl)phenyl)-2,5-dimethylbenzenesulfonamide], for which the AC50 was greater than 100 µM.

For the compound `Cc1ccc(C)c(S(=O)(=O)Nc2cccc(C(=O)N(C)CC3CC3)c2)c1` [Example 33, N-(cyclopropylmethyl)-3-((2,5-dimethylphenyl)sulfonamido)-N-methylbenzamide], the AC50 was greater than 100 µM.

For the compound `COc1ccc(S(=O)(=O)Nc2cccc(C(=O)N3CCSCC3C#N)c2)cc1` (stereo not shown) [Example 34, N-(3-(3-cyanothiomorpholine-4-carbonyl)phenyl)-4-methoxybenzenesulfonamide], the AC50 was greater than 100 µM.

Regarding `N#CC1CSCCN1C(=O)c1cccc(NS(=O)(=O)c2cccc(C(F)(F)F)c2)c1` (stereo not shown) [Example 35, N-(3-(3-cyanothiomorpholine-4-carbonyl)phenyl)-3-(trifluoromethyl)benzenesulfonamide], the AC50 is greater than 100 µM.

With `Cc1cc(S(=O)(=O)Nc2cccc3c2CC(=O)N3)c(C)cc1Cl` [Example 36, 4-chloro-2,5-dimethyl-N-(2-oxoindolin-4-yl)benzenesulfonamide], the AC50 is greater than 100 µM.

Take `Cc1cc2c(NS(=O)(=O)c3cc(C)c(Cl)cc3C)cccc2[nH]1` [Example 37, 4-chloro-2,5-dimethyl-N-(2-methyl-1H-indol-4-yl)benzenesulfonamide]: the AC50 is greater than 100 µM.

As for `Cc1ccc(C)c(S(=O)(=O)Nc2cncc(C(=O)N3CCOCC3)c2)c1` [Example 38, 2,5-dimethyl-N-(5-(morpholine-4-carbonyl)pyridin-3-yl)benzenesulfonamide], the AC50 was greater than 100 µM.

Consider `Cc1ccc(C)c(S(=O)(=O)Nc2ccc(C(=O)N[C@@H](C)C3CC3)cc2)c1` [Example 39, (S)-N-(1-cyclopropylethyl)-4-((2,5-dimethylphenyl)sulfonamido)benzamide], for which the AC50 is greater than 100 µM.

As for `Cc1ccc(C)c(S(=O)(=O)Nc2ccc(C(=O)NCC3CC3)cc2)c1` [Example 40, N-(cyclopropylmethyl)-4-((2,5-dimethylphenyl)sulfonamido)benzamide], the AC50 was greater than 100 µM.

`Cc1ccc(C)c(S(=O)(=O)Nc2cccc(C(=O)N3CCSCC3C(N)=O)c2)c1` (stereo not shown) [Example 41, 4-(3-((2,5-dimethylphenyl)sulfonamido)benzoyl) thiomorpholine-3-carboxamide]: the AC50 was greater than 100 µM.

Consider `Cc1cc(NS(=O)(=O)c2cc(C)ccc2C)cc(C(=O)N2CCCC[C@H]2C)c1` [Example 42, (R)-2,5-dimethyl-N-(3-methyl-5-(2-methylpiperidine-1-carbonyl)phenyl)benzenesulfonamide], for which the AC50 was greater than 100 µM.

On to `Cc1ccc(C)c(S(=O)(=O)Nc2ccc(C(=O)N3CCCC[C@H]3C)s2)c1` [Example 43, (R)-2,5-dimethyl-N-(5-(2-methylpiperidine-1-carbonyl)thiopheN-2-yl)benzenesulfonamide], for which the AC50 is greater than 100 µM.

Regarding `Cc1cc(S(=O)(=O)Nc2cccc(C(N)=O)c2)c(C)cc1Cl` [Example 44, 3-((4-chloro-2,5-dimethylphenyl)sulfonamido)benzamide], the AC50 was greater than 100 µM.

On to `Cc1cc(S(=O)(=O)Nc2cccc(C(=O)N3CCNCC3)c2)c(C)cc1Cl` [Example 46, 4-chloro-2,5-dimethyl-N-(3-(piperazine-1-carbonyl)phenyl)benzenesulfonamide], for which the concentration at half-maximal activity (AC50) was greater than 100 µM.

Turning to `COCCNC(=O)c1cccc(NS(=O)(=O)c2cc(C)c(Cl)cc2C)c1` [Example 47, 3-((4-chloro-2,5-dimethylphenyl)sulfonamido)-N-(2-methoxyethyl)benzamide], the AC50 was greater than 100 µM.

With `Cc1cc(S(=O)(=O)Nc2cccc(C(=O)N[C@H](C)c3ccccc3)c2)c(C)cc1Cl` [Example 48, (R)-3-((4-chloro-2,5-dimethylphenyl)sulfonamido)-N-(1-phenylethyl)benzamide], the AC50 was greater than 100 µM.

Consider `Cc1cc(S(=O)(=O)Nc2ccc(F)c(C(=O)N3CCC[C@H]3C)c2)c(C)cc1Cl` [Example 49, (R)-4-chloro-N-(4-fluoro-3-(2-methylpyrrolidine-1-carbonyl)phenyl)-2,5-dimethylbenzenesulfonamide], for which the concentration at half-maximal activity (AC50) was greater than 100 µM.

In the case of `Cc1cc(S(=O)(=O)Nc2cc(C(=O)N3CCC[C@H]3C)ccc2F)c(C)cc1Cl` [Example 50, (R)-4-chloro-N-(2-fluoro-5-(2-methylpyrrolidine-1-carbonyl)phenyl)-2,5-dimethylbenzenesulfonamide], the AC50 was greater than 100 µM.
